Data reported in publication PMC6858451, “Rhesus Theta Defensin 1 Promotes Long Term Survival in Systemic Candidiasis by Host Directed Mechanisms” (Scientific Reports, 2019).
“Also recorded” adds a separate entry of the source. Bridge positions count the residues as written; N and C are the ends. Peptide text beside a SMILES is read from it.

How the values were obtained:
C. albicans 53264 [1] = assay: Systemic MDR candidiasis model, survival and renal fungal burden; assay type: in vivo, CD-1 mice; conditions: for survival (log-rank): 1.8 × 10^7 blastospores i.v., 40 days
Experimental: (as in Fig. 3d). CD-1, rather than BALB/c mice were used in the C. albicans 53264 challenge studies as this mouse strain was employed by Wiederhold et al. in the assessment of caspofungin efficacy against this pathogen. […] Fungal burdens were determined in kidneys of long term survivors in the RTD-1, Caspo, and Fluco-treated cohorts (euthanized at day 40) and from moribund mice from the survival study in Fig. 7a.
(§1) BALB/c female mice (7–8 weeks old) and CD-1 female mice (4–5 weeks old) were obtained from Charles River Laboratories and allocated randomly in groups of five mice per cage. Mice were maintained on a 12 h light/dark cycle in thermostatically controlled rooms for the duration of the experiment. C. albicans inocula were prepared fresh each day from saturated cultures grown overnight in YPD medium, washed in sterile PBS, and fungi were counted with hemocytometer. Stock suspensions were prepared in sterile PBS. BALB/c mice were challenged with 2 × 10^6 CFU/ml wild-type C. albicans reference strain SC5314, while CD-1 mice were challenged with 1.8 × 10^7 CFU/ml (0.15–0.2 ml) C. albicans clinical isolate 53264 by i.v. injection into the lateral caudal tail vein using a 28 G 1/2 inch needle. Animals were treated by i.v., s.c., or i.p. routes immediately post-infection (p.i.) or 24 h p.i. with sterile saline (control), RTD-1, fluconazole, or caspofungin administered at the concentrations indicated in a 0.200 ml. Mice were weighted and monitored daily for general clinical condition. Mice were euthanized as approved by the USC IACUC and in compliance with the National Institutes of Health Guide for the Care and Use of Laboratory Animals. All experiments were repeated at least three times.
(§2) To assess systemic fungal clearance, renal fungal burden was determined. Mice were euthanized at times indicated, and both kidneys were weighed, homogenized in 5 ml of sterile PBS, and serial dilutions of homogenate were plated on YPD agar plates and incubated at 30 °C for 2 days. CFU per gram of kidney was calculated.

C. albicans SC5314 = assay: Systemic candidiasis model, survival and renal fungal burden; assay type: in vivo, BALB/c mice
Experimental: The efficacy of RTD-1 in vivo was evaluated in an established model of systemic candidiasis using C. albicans SC5314. Both immunocompetent and immunosuppressed mouse models are employed in preclinical studies of systemic candidiasis. Since many of our preliminary studies employed the […] model, we conducted efficacy studies with RTD-1 and reference antifungal drugs in immunocompetent BALB/c mice. Mice were challenged i.v. with 3 × 10^5 blastospores at T = 0, which rapidly produces disseminated candidiasis and colonizes major organs in a manner resembling systemic candidiasis in humans. […] We analyzed the effect of a single 5 mg/kg dose of RTD-1 administered i.v., s.c., or i.p. immediately after i.v. fungal challenge, with i.p. saline as vehicle control. Fluco and Caspo, administered i.p. at 5 mg/kg, were used as drug comparators. […] In subsequent studies, antifungal agents were administered i.p. to circumvent potentially confounding effects resulting from treatment by the same route as infection, which was i.v. in all experiments.
as §1, §2

C. albicans 53264 [2] = assay: Kinetics of candidacidal activity, liquid suspension assay; assay type: cell-based; conditions: PIPES-glucose buffer
Experimental: (§3) Kinetics of RTD-1 candidacidal activity was determined at peptide concentrations ranging from 0 to 10 µg/ml using a liquid suspension assay described previously. Overnight cultures of C. albicans 53264 or 43001 were grown to mid-log phase in 5% yeast peptone dextrose broth (YPD) (Difco) at 30 °C. Approximately 2 × 10^6 CFU/ml were incubated with 0, 0.3, 1, 3 and 10 µg/ml RTD-1 or 10 µg/ml caspofungin, suspended in 10 mM PIPES, pH 7.4, plus 5 mM glucose (PG), in 96-well plates with shaking at 60 RPM at 37 °C. At timed intervals, samples were diluted 1:1000 fold into PG buffer and aliquots plated onto YPD agar plates (TekNova), and surviving organisms quantified by colony counting after incubation for 24 h at 30 °C.

C. albicans 43001 = assay: as above; assay type: cell-based; conditions: PIPES-glucose buffer
Experimental: as §3

[3] = system: C. albicans SC5314 biofilms; assay: Biofilm XTT metabolic assay; assay type: cell-based
Experimental: The antifungal activities of RTD-1, caspofungin and fluconazole were evaluated against biofilms of C. albicans SC5314 and 53264 essentially as described by Pierce et al.[67]. Briefly, biofilms established for 0 h (preadhesion), 2 h (adherent), or 24 h (mature) were developed by adding 1 × 10^5 yeast cells in 50 or 100 µl of RPMI-1640 to wells of flat-bottom 96-well microtiter plates (Costar, Corning, NY). Fifty or 100 µl aliquots of serial 2-fold dilutions of peptide or antifungal drugs were added to wells in triplicate and incubated for 24 h or 48 h prior to analysis of biofilm metabolic activities. Concentrations of reagents used were as follows: RTD-1 - 0.09 – 100 µg/ml (0.05–48 µM), Fluco – 1–250 µg/ml (3.3–816.3 µM); Caspo- 0.003–8 µg/ml ([…]–7.3 µM). Analysis of the effect of each agent on Candida biofilms was performed using an XTT colorimetric assay. One hundred µl of 1 µM XTT/menadione added to each biofilm well, plates were incubated in the dark for 3 h at 37 °C, and 80 µl of supernatant was transferred to a new 96-well flat-bottom microtiter plate (Greiner Bio-one, Monroe, NC). Absorbance was measured at 490 nm on a SpectraMax® i3x (Molecular Devices). Readings were plotted as average of triplicates after subtracting the corresponding values for negative controls (XTT/menadione only).

[4] = 5 mg/kg i.p. once per day for 7 days beginning 24 h p.i.
[5] = 5 mg/kg i.p. once a day for 7 days, first dose 24 h after infection, 30 d
[6] = 3 µg/ml, by 30 min of incubation

| SMILES | survival (log-rank) (C. albicans 53264 [1]; [4]) | survival (C. albicans SC5314; [5]) | survival (C. albicans SC5314; single 5 mg/kg dose at T = 0 (RTD-1 i.v., s.c. or i.p.; Fluco, Caspo i.p.), 3 × 10^5 blastospores i.v., 30 days, vs saline, 5 mg/kg) | fungicidal activity, time-kill (C. albicans 53264 [2]; 10 µg/ml, 0–60 min) | fungicidal activity, time-kill (C. albicans 43001; 10 µg/ml, 0–60 min) | biofilm inhibition (XTT) ([3]; 2- and 24 h biofilms) | survival endpoint analysis (χ2) at day 40 p.i. (C. albicans 53264 [1]; [4]) | kidney fungal burden (CFU/g) (C. albicans 53264 [1]; long term survivors, day 40, vs moribund saline controls) | kidneys with no culturable organisms detected (C. albicans SC5314; long term survivors, day 30 p.i.) | kidney fungal burden (CFU/g) (C. albicans SC5314; long term survivors, day 30 p.i., treated i.p. at T = 0, vs moribund saline treated mice) | survival (C. albicans SC5314; single 5 mg/kg dose at T = 0 (RTD-1 i.v., s.c. or i.p.; Fluco, Caspo i.p.), 3 × 10^5 blastospores i.v., 30 days, vs saline) | kidney fungal burden (CFU/g) (C. albicans SC5314; single 5 mg/kg i.p. at T = 0, by day 3 p.i., vs saline) | survival (C. albicans SC5314; single i.p. 5 mg/kg, administration delayed 24 h or 72 h (data not shown)) | survival (C. albicans SC5314; single i.p. 5 mg/kg, treatment delayed 1, 3 or 6 h after infection) | survival (C. albicans SC5314; single i.p. dose 20 mg/kg at T = 0, vs saline) | survival (C. albicans SC5314; single i.p. dose 10 and 20 mg/kg at T = 0, compared with 5 mg/kg Fluco) | survival (C. albicans SC5314; single i.p. dose at T = 0, all doses of 0.1–20 mg/kg except 0.1 and 20 mg/kg, vs saline) | fungicidal activity, time-kill (C. albicans 53264 [2]; [6]) | fungicidal activity, time-kill (C. albicans 43001; [6]) | biofilm inhibition (XTT) ([3]; pre-adhesion, 2 h adherent and 24 h mature biofilms) |
| --- | --- | --- | --- | --- | --- | --- | --- | --- | --- | --- | --- | --- | --- | --- | --- | --- | --- | --- | --- | --- |
| CC[C@H](C)C[C@H](C)CCCCCCCCC(=O)N[C@H]1C[C@@H](O)[C@@H](NCCN)NC(=O)[C@@H]2[C@@H](O)CCN2C(=O)[C@H]([C@H](O)CCN)NC(=O)[C@H]([C@H](O)[C@@H](O)c2ccc(O)cc2)NC(=O)[C@@H]2C[C@@H](O)CN2C(=O)[C@H]([C@@H](C)O)NC1=O [Caspo, caspofungin] | significantly (P < 0.0001) improved survival | markedly enhanced survival | effective in enhancing survival; also recorded: superior to RTD-1 and Fluco treatment | very little activity | very little activity | reduced at concentrations >2 µg/ml | – | – | – | – | – | – | – | – | – | – | – | – | – | – |
| CC[C@H](C)[C@@H]1NC(=O)[C@@H]2CSSC[C@H](NC(=O)[C@H](CCCNC(=N)N)NC(=O)[C@@H]3CSSC[C@H](NC1=O)C(=O)N[C@@H]([C@@H](C)O)C(=O)N[C@@H](CCCNC(=N)N)C(=O)NCC(=O)N[C@@H](Cc1ccccc1)C(=O)N3)C(=O)N[C@@H](CC(C)C)C(=O)N[C@H]1CSSC[C@H](NC(=O)[C@H](C(C)C)NC(=O)CNC(=O)[C@H](CCCNC(=N)N)NC(=O)[C@H](CCCNC(=N)N)NC1=O)C(=O)N[C@@H](CCCNC(=N)N)C(=O)N2 [RTD-1, Rhesus theta (θ) defensin-1] (cyclo(GFCRCLCRRGVCRCICTR); disulfide 3-16, 5-14, 7-12 (inferred); ring closure inferred) | significantly (P < 0.0001) improved survival; also recorded: superior to Caspo (P = 0.029) but not Fluco | markedly enhanced survival; also recorded: more effective in enhancing survival than Fluco, and was nearly equivalent to Caspo | – | – | – | much more effective than Fluco | superior to Fluco (P = 0.01) and Caspo (P = 0.001) | significantly (P = 4.1 × 10^−5) reduced fungal burden | 50% | markedly reduced kidney fungal burden; also recorded: substantially more effective than treatment with Fluco | significantly enhanced survival regardless of the routes of administration | markedly reduced fungal burden | no survival enhancement | enhanced survival compared to saline control | significantly accelerates death | less effective than Fluco | enhanced survival significantly | sterilized the incubation mixture | sterilized the incubation mixture | inhibited biofilms of drug sensitive SC5314 at each time point, but less effectively than Caspo |
